# Data reported in PMC4430089 (Journal of peptide science : an official publication of the …, 2014).
# Columns and labels:
# [1] = tested on: 3T3 Swiss mice fibroblasts; assay: Cell viability, Trypan Blue assay; details: 15 μM peptide in PBS, 30 min exposure, three repeats on two plates
# [2] = Circular dichroism: conformation and thermal unfolding; assay type: physicochemical; details: for FF @ 37°C (folded fraction): calculated from CD molar ellipticity at 224 nm: FF=CD37-CD80/CDfolded-CD80
# [3] = tested on: 3T3 Swiss mice fibroblasts; assay: Cellular uptake by confocal microscopy; assay type: cell-based; details: 15 μM peptide in PBS, 30 min; for Preferential accumulation site within the cell: confocal microscopy without DAPI; for Cellular uptake (FITC fluorescence from cells): confocal microscopy, 37°C
# [4] = tested on: Jurkat E6 human leukemia cells; assay: Cellular uptake by flow cytometry; assay type: cell-based; details: 15μM peptide, 10 min
Substance,Cytotoxicity compared to control (cell viability) [1],FF @ 37°C (folded fraction) [2],Preferential accumulation site within the cell [3],Cellular uptake (FITC fluorescence from cells) [3],Fluorescence intensity of cells lower than cells incubated with V2 [4],Number of cells that uptake the peptide [4],Tm lower than Tm of V1 ([2]; difference of CD Tm values)
FITC-AβGG-POGPOGPOGPOGPOGPOGPOGPOG-RRGRRG [Peptide V1],no significant (p>0.05) toxicity,0.90,"accumulates to larger extend in cytoplasm than V2, with only small amount reaching the nucleus",effectively penetrate the cellular membrane,about 20%,71.2%,
FITC-AβGG-POGPOGPOGPOGPOGPOGPOGPOG-RRRRRR [Peptide V2],no significant (p>0.05) toxicity,0.82,stronger preference to accumulate within the nuclear bodies,effectively penetrate the cellular membrane,,72.8%,3.2 °C
